Data from patent publication US9642845B2, “Method for alleviating side effects of retinoic acid therapy and/or improving efficacy without interfering with efficacy” (University of Kentucky Research Foundation, priority 2007, dated 2017).

What was measured:
photodamaged skin [1] = experiment: Rates of transepidermal water loss (TEWL), right cheek, Dermalab; type: in vivo, human; conditions: for change from baseline in mean rates of TEWL: 12 weeks
Experimental: (§1) A clinical study was conducted to examined the combined use of retinoic acid therapy with myristyl nicotinate (MN), a lipophilic derivative of niacin that enhances skin barrier function, in subjects with mild to moderate facial photodamage.
(§2) The subjects were randomly assigned to one of three groups of 20 subjects each. One month prior to the initiation of retinoic acid therapy, one of the groups (group 3) began to apply to the entire face, both night and morning, a formulation containing 5% myristyl nicotinate. Groups 1 and 2 applied, in the same manner, a placebo formulation in which myristyl myristate replaced myristyl nicotinate. Upon initiation of retinoic acid therapy (baseline), group 1 (placebo/placebo+RA) continued to use the placebo formulation as above, group 2 (placebo/MN+RA) initiated use of the 5% myristyl nicotinate formulation and group 3 (MN/MN+RA) continued to use the 5% myristyl nicotinate formulation. Retinoic acid therapy involved a 0.025% concentration of the drug applied at night, immediately following application of the placebo or myristyl nicotinate containing formulations. This strength of retinoic acid was chosen for this study as the subjects had mild to moderate photodamage.
Determination of rates of TEWL provides a non-invasive assessment of relative skin barrier function. […] For the TEWL measurements, the instruments required a specified temperature and humidity range for optimal function, thus subjects were required to equilibrate to ambient conditions for at least 20 min prior to measurements. Temperature was maintained between 66 and 72° F. and relative humidity maintained between 15 and 55%. A computer-linked Dermalab instrument was used to measure TEWL at two points above the skin surface on the right cheeks of study subjects and the rate of water loss was calculated. Each TEWL measurement was averaged over a one-min measurement period.

caspase 14 = experiment: Caspase 14 expression in study subjects; type: in vivo, human
Description: (§3) To investigate this, the levels of expression of both caspase 14 and filaggrin were investigated in the groups of subjects referred to supra, (i.e., subjects who received placebo alone for one month, then placebo plus retinoic acid, and those who received placebo only for one month and then myristyl nicotinate and retinoic acid during the treatment phase.

photodamaged skin [2] = experiment: Clinical grading of tolerability (irritation/safety parameters); type: in vivo, human
Experimental: as §1, §2
(§4) In order to assess both the tolerability and efficacy of retinoic acid therapy, subjects also were clinically graded on the right and/or left side of the face for efficacy/performance parameters and irritation/safety parameters at baseline, and weeks 2, 4, 8, and 12.
The most severe parameters of tolerability such as scaling/peeling and degree of erythema were graded on 3-point clinical scale at weeks 2, 4, 8, and 12, and mean values were determined. The frequency of less severe parameters of tolerability typical of retinoic acid therapy (including tightness/dryness, stinging, burning, and tingling) was also evaluated.

photodamaged skin [3] = experiment: Suprapapillary epidermal thickness of periorbital punch biopsies; type: in vivo, human; conditions: for increase in epidermal thickness: 12 weeks
Experimental: as §1, §2
(§5) Accordingly, periorbital biopsy samples obtained from study subjects were evaluated for stratum corneum thickness. A board certified dermatologist collected a 2-mm punch biopsy from the right or left side of the face as determined by a randomization design of 7 randomly selected subjects from each group at baseline and after 12 weeks of treatment. The punch biopsies were formalin-fixed, embedded in paraffin, cut into 5 μm cross-sections, mounted on slides, and stained with hematoxylin-eosin (H&E).
(§6) Histological images were taken of the H&E stained cross sections with an Olympus inverted stage microscope using a 10× by 0.45 Apochromat objective and a Nikon digital CCD camera. ImageJ image analysis software (NIH) was used to examine the images and perform measurements. Suprapapillary epidermal thickness (as measured from the top of the dermal papilla to the top of the granular layer) and stratum corneum thickness (as measured from the top of the granular layer to the top of the stratum corneum) were measured. For each specimen, five different sites were measured and the average was calculated.
Since long term retinoid therapy is associated with an increase in epidermal thickness, changes in epidermal thickness in each of the groups over the 12-week course of the retinoic acid therapy were also assessed. The mean values for the placebo/placebo+RA, placebo/MN+RA, and MN/MN+RA groups at the baseline were 37.9, 38.8, and 39.3 μm, respectively. […]

photodamaged skin [4] = experiment: Stratum corneum thickness of periorbital punch biopsies, clinical study; type: in vivo, human
Experimental: as §1
All subjects selected for the study were female, between the ages of 30 and 60, with a score of I to IV on the Fitzpatrick Skin Classification, mild to moderate photodamaged skin as defined by a modified Glogau Classification of I to II, and with presence of dyschromia on the face as determined by a woods light visual scan.
The subjects were randomly assigned to one of three groups of 20 subjects each. One month prior to the initiation of retinoic acid therapy, one of the groups (group 3) began to apply to the entire face, both night and morning, a formulation containing 5% myristyl nicotinate. Groups 1 and 2 applied, in the same manner, a placebo formulation in which myristyl myristate replaced myristyl nicotinate. […]
as §5, with “The punch biopsies were formalin-fixed, embedded in paraffin, cut into 5 μm cross-sections, mounted on slides, and stained with hematoxylin-eosin (H&E).” left out
as §6, with “ImageJ image analysis software (NIH) was used to examine the images and perform measurements.” left out

filaggrin = experiment: Filaggrin expression in study subjects; type: in vivo, human
Description: as §3

photodamaged skin [5] = conditions: 5% myristyl nicotinate for 3 months, previous studies; cited from earlier work
photodamaged skin [6] = experiment: Clinical grading of efficacy (dyschromia, fine lines, wrinkles, tactile roughness, temple laxity); type: in vivo, human; conditions: for grading of temple laxity vs placebo/placebo+RA: 12 weeks
Experimental: as §1, §2, §4
Clinical grading involved evaluation of dyschromia, fine lines, shallow wrinkles, tactile roughness, and temple laxity as a function of treatment time (at weeks 2, 4, 8, and 12).

[7] = MN/MN+RA group (prior and concurrent MN)

## CC1=C(/C=C/C(C)=C/C=C/C(C)=C/C(=O)O)C(C)(C)CCC1 [retinoic acid, All-trans-retinoic acid]
Photodamaged skin [1]; placebo/placebo+RA group, 12 week period, p<0.0001
  increase in rates of TEWL: approximately 45%
Caspase 14; placebo plus retinoic acid for 3 months
  average increase in caspase 14 expression: 5%
Photodamaged skin [2]; retinoic acid therapy 0.025%, frequency reported in the study
  frequency of tingling: 2%
Photodamaged skin [3]; retinoic acid and placebo cream, 12 week study
  decrease in mean epidermal thickness: approximately 5%
Photodamaged skin [4]; placebo/placebo+RA group, 12 weeks of 0.025% retinoic acid therapy, p=0.006 vs. baseline
  reduction in stratum corneum thickness: approximately 24%
filaggrin; subjects not treated with myristyl nicotinate (placebo plus retinoic acid)
  change in filaggrin expression: no change

## CCCCCCCCCCCCCCOC(=O)c1cccnc1 [myristyl nicotinate]
Photodamaged skin [1]; [7]
  change from baseline in mean rates of TEWL: not statistically significant
Photodamaged skin [1]; placebo/MN+RA group (concurrent MN)
  change from baseline in mean rates of TEWL: not statistically significant
Caspase 14; placebo, retinoic acid and myristyl nicotinate for 3 months
  increase in caspase 14 expression: 24%
Photodamaged skin [2]; [7]
  incidence of tingling: zero
Photodamaged skin [2]; concurrent use of myristyl nicotinate with retinoic acid therapy
  frequency of tightness/dryness, stinging, and burning: decreased
Photodamaged skin [2]; myristyl nicotinate treated subjects on 0.025% retinoic acid, difference not statistically significant
  grading of erythema vs placebo: consistently slightly higher
Photodamaged skin [2]; prior and concurrent myristyl nicotinate use with retinoic acid therapy
  frequency of tightness/dryness, stinging, and burning: further reduced
Photodamaged skin [5]
  increase in stratum corneum thickness: more than 50%
Photodamaged skin [6]; MN/MN+RA group, p=0.02
  grading of temple laxity vs placebo/placebo+RA: statistically significant greater improvement
Photodamaged skin [6]; MN/MN+RA group, weeks 4 to 12
  tactile roughness scores: consistently showed greater improvement
Photodamaged skin [6]; placebo/MN+RA group, not significant at p<0.05
  grading of temple laxity vs placebo/placebo+RA: trend for greater improvement
Photodamaged skin [3]; MN/MN+RA group at baseline, after one month of 5% myristyl nicotinate
  mean epidermal thickness: 39.3 μm
Photodamaged skin [3]; myristyl nicotinate concurrent with retinoic acid
  increase in epidermal thickness: approximately 3%
Photodamaged skin [3]; myristyl nicotinate prior/concurrent with retinoic acid, p=0.0007 vs placebo/placebo+RA
  increase in epidermal thickness: approximately 10%
Photodamaged skin [4]; MN/MN+RA group at baseline, after one month of 5% myristyl nicotinate, not significant at p<0.05
  higher mean stratum corneum thickness compared to the mean values of the other groups: approximately 11%
Photodamaged skin [4]; concurrent use of 5% myristyl nicotinate and 0.025% retinoic acid, 12 weeks
  change in stratum corneum thickness: did not result in a decrease in stratum corneum thickness
filaggrin; placebo, myristyl nicotinate and retinoic acid
  average increase in filaggrin expression: 13%
